The text below walks through data of article PMC10028264, “Synergistic antifungal interaction of N-(butylcarbamothioyl) benzamide and amphotericin B against Cryptococcus neoformans” (Frontiers in Microbiology, 2023).

Holding throughout (format): cell-based
The subject of assay [1] is Cryptococcus neoformans. Put plainly: Broth microdilution MIC and MFC on planktonic cells. How it is done: Cryptococcus neoformans ATCC 34872 (serotype A), C. neoformans ATCC 66031 (serotype D), and four C. neoformans human isolates (Table 1) belonging to the microbial collection of the Laboratório de Biologia Molecular de Microrganismos of Universidade Estadual de Londrina (UEL), Londrina, Paraná, Brazil, were included in the present study. Yeasts were cultivated in Sabouraud dextrose (SD) agar at 37°C for 48 h and stored at 4°C. For the experiments, five colonies were transferred to SD broth and incubated under the same conditions. Cells were then centrifuged (10,000 × g for 1 min) and resuspended in 0.85% NaCl solution (saline) to achieve turbidity equivalent to 0.5 McFarland standard using the DensiCHEK™ PLUS colorimeter (bioMérieux), which corresponds to approximately 1.0–2.0 × 10^6 colony forming units (CFUs)/mL (standard fungal suspension). The fungal suspension was diluted in a culture medium to achieve the inoculum used in each assay. The study protocol was in accordance with the ethics committee of the UEL. The patients signed a written informed consent form agreeing with this publication (CAAE number 57452322.2.0000.5231).
Minimal inhibitory concentrations (MIC) of BTU-01 and AmB were determined by the broth microdilution method ([CLSI, 2017]). An inoculum (100 μL) of yeast cells (0.5–2.5 × 10^3 CFU/mL) was added into the wells of a U-bottom 96-well microtiter plate (Techno Plastic Products, Switzerland) containing twofold serial dilutions of BTU-01 (1.95–1000.0 μg/mL) and AmB (0.031–16.0 μg/mL) in RPMI-MOPS. Wells containing medium or medium plus DMSO 1% with or without the fungal cells were used as growth and sterility controls, respectively. Candida parapsilosis ATCC 22019 was used as quality control. […] The results of AmB were interpreted using the epidemiological cut-off values proposed in [Espinel-Ingroff et al. (2012)]. To determine the minimal fungicidal concentration (MFC), 10 μL from the wells without visible growth was transferred onto SD agar ([Espinel-Ingroff et al., 2002]), and incubated at 37°C for 48 h. The MFC was determined as the lowest concentration capable of reducing the CFU counts to zero.
On the technique in general: Dilution methods test growth across graded concentrations, often in twofold steps.

For assay [2], the system named is Cryptococcus neoformans biofilm. Put plainly: Antifungal activity on sessile cells, 72-h biofilm, MTT reduction (SMIC80). The method, then: The capacity of C. neoformans strains to form biofilm was evaluated on flat-bottomed 96-well polystyrene plates (Techno Plastic Products, Switzerland), as described by [Martinez and Casadevall (2006)]. Thus, the biofilms were formed in SD broth statically at 37°C for 24, 48, 72, 96, and 120 h, with an inoculum of 1.0 × 10^7 CFU/mL. After each incubation period, the viability of sessile cells was evaluated using the 3-(4,5-dimethylthiazol-2-yl)-2,5-diphenyltetrazolium bromide (MTT, Merck, Brazil) reduction assay according to the manufacturer’s recommendations. The assays were carried out in quintuplicate and performed on two separate occasions.
To evaluate the antifungal activity of the compounds on sessile cells, biofilms were formed for 72 h, washed with saline, and 200-μL aliquots of RPMI-MOPS containing different concentrations of BTU-01 (31.25–1000.0 μg/mL) and/or AmB (0.007–16.0 μg/mL) were added for determining the SMIC (Sessile Minimal Inhibitory Concentration). Untreated and treated biofilms were incubated at 37°C for further 24 h, and then washed with saline. The biofilm viability was analyzed by the MTT reduction assay as described above. The SMICs of BTU-01 and AmB alone and combined were determined by the lowest concentration capable of inhibiting 80% (SCIM80) of the viability of sessile cells compared to the untreated controls. The checkerboard assays were performed to analyze the effect of the combination with BTU-01 and AmB on 72-h biofilms. The results of the combination were interpreted using the FICI as described previously.
For orientation: Tetrazolium assays rely on reduction of a dye to a coloured formazan, in cell work by metabolically active cells.

In assay [3] the test system is Cryptococcus neoformans. As to the kind of experiment: Fungal capsule and cell size (Chinese ink, light microscopy). As to conditions: compared to untreated cells; ATCC 34872 and 1172; 48 h; p < 0.05. The method, then:
For all assays, fungal cells were incubated in RPMI-MOPS (except when specified) supplemented with BTU-01 and AmB alone at MIC and MFC values or combined at the synergistic MIC values. Untreated fungal cells were considered as control.
Cryptococcus neoformans was cultivated in a minimal capsular induction medium (15 mM glucose, 10 mM MgSO4, 29.4 mM KH2PO4, 13 mM glycine and 3 μM thiamine-HCl, pH 5.5) at 37°C for 7 days ([Frases et al., 2009]). Afterward, a standard fungal suspension was prepared as described above, and the cells (1.0 × 10^7 CFU/mL) were treated with the compounds at 37°C for 48 h. Cells were collected by centrifugation (10,000 × g, 1 min), suspended in an equal volume of Chinese ink on glass slides, spread the smear evenly with coverslips, and observed with a Zeiss Axio Imager 2 microscope (Zeiss, Germany). The capsule size of 100 randomly chosen cells was measured by using the software ImageJ 1.49v.^1 The capsule thickness was determined according to [Spadari et al. (2019)], which consisted of the difference between the diameter of the cell, including the capsule, with the diameter of the body cell within the cell wall.

The subject of assay [4] is Cryptococcus neoformans. Put plainly: Time-kill kinetics. As to conditions: for difference in CFU counts compared to untreated control cells: BTU-01 MIC, 48 h. The method, then:
For all assays, fungal cells were incubated in RPMI-MOPS (except when specified) supplemented with BTU-01 and AmB alone at MIC and MFC values or combined at the synergistic MIC values. Untreated fungal cells were considered as control. The time-kill assay ([CLSI, 1999]) was performed to analyze the rate of fungal killing in the presence of the compounds alone or combined. The fungal cells (1.0 × 10^3 CFU/mL) were added to the wells of U-bottom 96-wells microtiter plates containing RPMI-MOPS supplemented with BTU-01 and/or AmB and were incubated at 37°C. At determined time points (0, 24, and 48 h), 10 μL was removed from each well and 10-fold serial diluted in saline. A 10-μL aliquot of each dilution was inoculated onto SD agar and the CFU counts were carried out after incubation at 37°C for 48 h. Averaged data were plotted as log10 CFU/mL vs. time (h). The fungicidal effect of the compounds was defined as a 99.9% (3 log10) reduction in CFU/mL of the starting inoculum ([[…] et al., 1998]).

[5] abbreviates: Cryptococcus neoformans, 72 h, C. neoformans 1172; planktonic cells; 72 h; read-out: MIC.
The mark [6] stands for this setting: Cryptococcus neoformans, 72 h, C. neoformans 90889; planktonic cells; 72 h; read-out: MIC.
Setting [7] is: Cryptococcus neoformans, 72 h, C. neoformans CN01; planktonic cells; 72 h; read-out: MIC.
Setting [8] is: Cryptococcus neoformans, 72 h, C. neoformans CN12; planktonic cells; 72 h; read-out: MIC.
Where [9] appears, read: Cryptococcus neoformans, ATCC34872, 72 h, C. neoformans ATCC 34872; planktonic cells; 72 h; read-out: MIC.
Setting [10] is: Cryptococcus neoformans, ATCC66031, 72 h, C. neoformans ATCC 66031; planktonic cells; 72 h; read-out: MIC.
Where [11] appears, read: C. neoformans 1172, treated 24 h.
[12] abbreviates: C. neoformans ATCC 34872, treated 24 h.

≈ marks a conversion by molar mass, not a printed value. Like-named read-outs stand apart in the source and are kept apart here. Bounds are passed on as bounds.

With `C[C@@H]1[C@H](O)[C@@H](C)/C=C/C=C/C=C/C=C/C=C/C=C/C=C/[C@H](O[C@@H]2O[C@H](C)[C@@H](O)[C@H](N)[C@@H]2O)C[C@@H]2O[C@](O)(C[C@@H](O)C[C@@H](O)[C@H](O)CC[C@@H](O)C[C@@H](O)CC(=O)O[C@H]1C)C[C@H](O)[C@H]2C(=O)O` [Amphotericin B, amphotericin B], the MIC (in general, the lowest concentration that inhibits growth of the organism) is 0.25 µg/mL (≈ 0.271 µM) in assay [1] (C. neoformans 1172; planktonic cells; 72 h; listed as AmB); 0.25 µg/mL (≈ 0.271 µM) in assay [1] (C. neoformans ATCC 34872; planktonic cells; 72 h; listed as AmB); 0.25 µg/mL (≈ 0.271 µM) in assay [1] (setting [5]); 0.25 µg/mL (≈ 0.271 µM) in assay [1] (setting [6]); 0.125 µg/mL (≈ 0.135 µM) in assay [1] (setting [7]); 0.125 µg/mL (≈ 0.135 µM) in assay [1] (setting [8]). For the same compound, the MIC in assay [1] (setting [9]) was found to be 0.25 µg/mL (≈ 0.271 µM); in assay [1] (setting [10]), 0.125 µg/mL (≈ 0.135 µM). The MFC in assay [1] (C. neoformans 90889; planktonic cells; 72 h) was found to be 0.5 µg/mL (≈ 0.541 µM); in assay [1] (C. neoformans CN01; planktonic cells; 72 h) it was 0.5 µg/mL (≈ 0.541 µM); in assay [1] (C. neoformans CN12; planktonic cells; 72 h), 0.5 µg/mL (≈ 0.541 µM); in assay [1] (Cryptococcus neoformans, ATCC34872; C. neoformans ATCC 34872; planktonic cells; 72 h; read-out: MFC) it was 0.5 µg/mL (≈ 0.541 µM); in assay [1] (Cryptococcus neoformans, ATCC66031; C. neoformans ATCC 66031; planktonic cells; 72 h; read-out: MFC), 0.5 µg/mL (≈ 0.541 µM); in assay [1] (Cryptococcus neoformans; C. neoformans 1172; planktonic cells; 72 h; read-out: MFC), 0.5 µg/mL (≈ 0.541 µM). Moreover, in assay [1] (epidemiological cut-off values of Espinel-Ingroff et al., 2012; all strains), the “susceptibility of the strains to the antifungal” value is recorded as “susceptible”. Besides, in assay [1] (planktonic cells; all six strains), the “MFC, range over all C. neoformans strains” value came to 0.5 µg/mL (≈ 0.541 µM). Moreover, the SMIC80 in assay [2] (setting [11]) and in assay [2] (setting [12]) was 1.0 µg/mL throughout. Moreover, the capsule size entry in assay [3] is “significant reduction”. Further, the cell size entry in assay [3] is “significant reduction”. For the same compound, in assay [4] (AmB MFC, after 24 h-incubation), the CFU counts result was “no CFU counts were detected”.
Turning to `CCCCNC(=S)NC(=O)c1ccccc1` [BTU-01, N-(butylcarbamothioyl) benzamide], the MFC was 125 µg/mL (≈ 529 µM) in assay [1] (Cryptococcus neoformans, 72 h, C. neoformans 1172; planktonic cells; 72 h; read-out: MFC); 250 µg/mL (≈ 1060 µM) in assay [1] (Cryptococcus neoformans, 72 h, C. neoformans 90889; planktonic cells; 72 h; read-out: MFC); 500 µg/mL (≈ 2120 µM) in assay [1] (Cryptococcus neoformans, 72 h, C. neoformans CN01; planktonic cells; 72 h; read-out: MFC); more than 1000 µg/mL in assay [1] (Cryptococcus neoformans, 72 h, C. neoformans CN12; planktonic cells; 72 h; read-out: MFC); 125 µg/mL (≈ 529 µM) in assay [1] (Cryptococcus neoformans, ATCC34872, 72 h, C. neoformans ATCC 34872; planktonic cells; 72 h; read-out: MFC); 125 µg/mL (≈ 529 µM) in assay [1] (Cryptococcus neoformans, ATCC66031, 72 h, C. neoformans ATCC 66031; planktonic cells; 72 h; read-out: MFC). The minimum inhibitory concentration (MIC) in assay [1] (setting [5]) came out at 62.5 µg/mL (≈ 264 µM); in assay [1] (setting [6]) it was 62.5 µg/mL (≈ 264 µM); in assay [1] (setting [7]), 62.5 µg/mL (≈ 264 µM); in assay [1] (setting [8]) it was 31.2 µg/mL (≈ 132 µM); in assay [1] (setting [9]) it was 62.5 µg/mL (≈ 264 µM); in assay [1] (setting [10]), 62.5 µg/mL (≈ 264 µM). For the same compound, the “nature of the antifungal effect” value in assay [1] (from MIC and MFC; all strains) is “fungistatic effect”. For the same compound, the SMIC80 in assay [2] (setting [11]) was more than 1000.0 µg/mL; in assay [2] (setting [12]), 125.0 µg/mL. For the same compound, the capsule size entry in assay [3] is “significant reduction”. Further, the cell size entry in assay [3] is “significant reduction”. In addition, the figures for the “difference in CFU counts compared to untreated control cells” value in assay [4] (1172) and in assay [4] (ATCC 34872) were 3 log10 and 2 log10, respectively. Moreover, in assay [4] (treatment with MFC, 1172 isolate), the “reduction of CFU compared to untreated control” value turned out to be 5 log CFU. Moreover, the CFU counts entry in assay [4] (treatment with MFC, ATCC 34872) was “zero CFU counts”.
